Assay results reported in PubChem BioAssay (NCI).
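Cultured in 96-well plates, cells were exposed to test compound for 48 hours across five concentrations. TGI marks complete inhibition of growth.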

How the values were obtained:
Experiment in all cases: DTP human tumour cell line panel, 48 h
786-0 renal = system: 786-0 renal
A498 renal = system: A498 renal
A549 NSCLC = system: A549 NSCLC
ACHN renal = system: ACHN renal
BT-549 breast = system: BT-549 breast
CAKI-1 renal = system: CAKI-1 renal
CCRF-CEM leukemia = system: CCRF-CEM leukemia
COLO 205 colon = system: COLO 205 colon
DU-145 prostate = system: DU-145 prostate
EKVX NSCLC = system: EKVX NSCLC
HCC-2998 colon = system: HCC-2998 colon
HCT-116 colon = system: HCT-116 colon
HCT-15 colon = system: HCT-15 colon
HL-60(TB) leukemia = system: HL-60(TB) leukemia
HOP-62 NSCLC = system: HOP-62 NSCLC
HOP-92 NSCLC = system: HOP-92 NSCLC
HS 578T breast = system: HS 578T breast
HT29 colon = system: HT29 colon
IGROV1 ovarian = system: IGROV1 ovarian
K-562 leukemia = system: K-562 leukemia
KM12 colon = system: KM12 colon
LOX IMVI melanoma = system: LOX IMVI melanoma
M14 melanoma = system: M14 melanoma
MALME-3M melanoma = system: MALME-3M melanoma
MCF7 breast = system: MCF7 breast
MDA-MB-231 breast = system: MDA-MB-231 breast
MDA-MB-435 = system: MDA-MB-435
MDA-N = system: MDA-N
MOLT-4 leukemia = system: MOLT-4 leukemia
NCI-H226 lung = system: NCI-H226 lung
NCI-H23 lung = system: NCI-H23 lung
NCI-H460 lung = system: NCI-H460 lung
NCI-H522 lung = system: NCI-H522 lung
NCI/ADR-RES ovarian = system: NCI/ADR-RES ovarian
OVCAR-3 ovarian = system: OVCAR-3 ovarian
OVCAR-4 ovarian = system: OVCAR-4 ovarian
OVCAR-5 ovarian = system: OVCAR-5 ovarian
OVCAR-8 ovarian = system: OVCAR-8 ovarian
PC-3 prostate = system: PC-3 prostate
RPMI-8226 leukemia = system: RPMI-8226 leukemia
RXF 393 renal = system: RXF 393 renal
SF-268 CNS = system: SF-268 CNS
SF-295 CNS = system: SF-295 CNS
SF-539 CNS = system: SF-539 CNS
SK-MEL-2 melanoma = system: SK-MEL-2 melanoma
SK-MEL-28 melanoma = system: SK-MEL-28 melanoma
SK-MEL-5 melanoma = system: SK-MEL-5 melanoma
SK-OV-3 ovarian = system: SK-OV-3 ovarian
SN12C renal = system: SN12C renal
SNB-19 CNS = system: SNB-19 CNS
SNB-75 CNS = system: SNB-75 CNS
SR leukemia = system: SR leukemia
SW-620 colon = system: SW-620 colon
T-47D breast = system: T-47D breast
TK-10 renal = system: TK-10 renal
U251 CNS = system: U251 CNS
UACC-257 melanoma = system: UACC-257 melanoma
UACC-62 melanoma = system: UACC-62 melanoma
UO-31 renal = system: UO-31 renal
DLD-1 colon = system: DLD-1 colon
DMS 114 small cell lung = system: DMS 114 small cell lung
DMS 273 small cell lung = system: DMS 273 small cell lung
HOP-18 NSCLC = system: HOP-18 NSCLC
KM20L2 colon = system: KM20L2 colon
LXFL 529 NSCLC = system: LXFL 529 NSCLC
M19-MEL melanoma = system: M19-MEL melanoma
SNB-78 CNS = system: SNB-78 CNS
XF 498 CNS = system: XF 498 CNS

SMILES: COc1ccc(Br)c(C=Nc2cccc3cc(OC)c(OC)cc23)c1
- TGI (786-0 renal): > 100 µM
- TGI (A498 renal): > 100 µM
- TGI (A549 NSCLC): > 100 µM
- TGI (ACHN renal): > 73.8 µM
- TGI (BT-549 breast): > 46 µM
- TGI (CAKI-1 renal): > 100 µM
- TGI (CCRF-CEM leukemia): > 40.5 µM
- TGI (COLO 205 colon): > 100 µM
- TGI (DU-145 prostate): > 100 µM
- TGI (EKVX NSCLC): > 100 µM
- TGI (HCC-2998 colon): > 100 µM
- TGI (HCT-116 colon): 34.2 µM
- TGI (HCT-15 colon): 16.4 µM
- TGI (HL-60(TB) leukemia): 7.97 µM
- TGI (HOP-62 NSCLC): > 100 µM
- TGI (HOP-92 NSCLC): 79.5 µM
- TGI (HS 578T breast): 57.1 µM
- TGI (HT29 colon): > 71.8 µM
- TGI (IGROV1 ovarian): > 93.9 µM
- TGI (K-562 leukemia): > 39.6 µM
- TGI (KM12 colon): > 95.7 µM
- TGI (LOX IMVI melanoma): 19.2 µM
- TGI (M14 melanoma): > 58.1 µM
- TGI (MALME-3M melanoma): 99.6 µM
- TGI (MCF7 breast): > 100 µM
- TGI (MDA-MB-231 breast): > 46.4 µM
- TGI (MDA-MB-435): 12.6 µM
- TGI (MDA-N): > 41.4 µM
- TGI (MOLT-4 leukemia): > 62.4 µM
- TGI (NCI-H226 lung): > 100 µM
- TGI (NCI-H23 lung): > 100 µM
- TGI (NCI-H460 lung): > 100 µM
- TGI (NCI-H522 lung): > 100 µM
- TGI (NCI/ADR-RES ovarian): > 77.8 µM
- TGI (OVCAR-3 ovarian): > 100 µM
- TGI (OVCAR-4 ovarian): > 100 µM
- TGI (OVCAR-5 ovarian): > 100 µM
- TGI (OVCAR-8 ovarian): > 59.9 µM
- TGI (PC-3 prostate): > 100 µM
- TGI (RPMI-8226 leukemia): > 46.3 µM
- TGI (RXF 393 renal): > 100 µM
- TGI (SF-268 CNS): > 100 µM
- TGI (SF-295 CNS): > 100 µM
- TGI (SF-539 CNS): 12.4 µM
- TGI (SK-MEL-2 melanoma): > 100 µM
- TGI (SK-MEL-28 melanoma): > 100 µM
- TGI (SK-MEL-5 melanoma): > 94.9 µM
- TGI (SK-OV-3 ovarian): > 100 µM
- TGI (SN12C renal): > 46.4 µM
- TGI (SNB-19 CNS): > 100 µM
- TGI (SNB-75 CNS): > 100 µM
- TGI (SR leukemia): 11.6 µM
- TGI (SW-620 colon): 51.1 µM
- TGI (T-47D breast): > 100 µM
- TGI (TK-10 renal): 71.6 µM
- TGI (U251 CNS): 12.1 µM
- TGI (UACC-257 melanoma): > 100 µM
- TGI (UACC-62 melanoma): > 83 µM
- TGI (UO-31 renal): 97.5 µM

SMILES: Cc1ccc(-c2cc(=O)c3cc(C)c(C)c(C(=O)O)c3o2)cc1[N+](=O)[O-]
- TGI (786-0 renal): > 100 µM
- TGI (A549 NSCLC): > 100 µM
- TGI (ACHN renal): > 100 µM
- TGI (CAKI-1 renal): > 100 µM
- TGI (CCRF-CEM leukemia): > 100 µM
- TGI (COLO 205 colon): > 100 µM
- TGI (DLD-1 colon): > 100 µM
- TGI (DMS 114 small cell lung): > 100 µM
- TGI (DMS 273 small cell lung): > 100 µM
- TGI (EKVX NSCLC): > 100 µM
- TGI (HCT-116 colon): > 100 µM
- TGI (HCT-15 colon): > 100 µM
- TGI (HOP-18 NSCLC): > 100 µM
- TGI (HT29 colon): > 100 µM
- TGI (IGROV1 ovarian): > 100 µM
- TGI (K-562 leukemia): > 100 µM
- TGI (KM12 colon): > 100 µM
- TGI (KM20L2 colon): > 100 µM
- TGI (LOX IMVI melanoma): > 100 µM
- TGI (LXFL 529 NSCLC): > 100 µM
- TGI (M14 melanoma): > 100 µM
- TGI (M19-MEL melanoma): > 100 µM
- TGI (MALME-3M melanoma): > 100 µM
- TGI (MOLT-4 leukemia): > 100 µM
- TGI (NCI-H226 lung): > 100 µM
- TGI (NCI-H23 lung): > 100 µM
- TGI (NCI-H460 lung): > 100 µM
- TGI (NCI-H522 lung): > 100 µM
- TGI (OVCAR-3 ovarian): > 100 µM
- TGI (OVCAR-4 ovarian): > 100 µM
- TGI (OVCAR-5 ovarian): > 100 µM
- TGI (OVCAR-8 ovarian): > 100 µM
- TGI (RPMI-8226 leukemia): > 100 µM
- TGI (RXF 393 renal): > 100 µM
- TGI (SF-268 CNS): > 100 µM
- TGI (SF-295 CNS): > 100 µM
- TGI (SF-539 CNS): > 100 µM
- TGI (SK-MEL-2 melanoma): > 100 µM
- TGI (SK-MEL-28 melanoma): > 100 µM
- TGI (SK-MEL-5 melanoma): > 100 µM
- TGI (SK-OV-3 ovarian): > 100 µM
- TGI (SN12C renal): > 100 µM
- TGI (SNB-19 CNS): > 100 µM
- TGI (SNB-75 CNS): > 100 µM
- TGI (SNB-78 CNS): > 100 µM
- TGI (SW-620 colon): > 100 µM
- TGI (TK-10 renal): > 100 µM
- TGI (U251 CNS): > 100 µM
- TGI (UACC-257 melanoma): > 100 µM
- TGI (UACC-62 melanoma): > 100 µM
- TGI (UO-31 renal): > 100 µM

SMILES: CC(=O)Oc1cc(Cl)c(OC(C)=O)c2c(OC(C)=O)c(C)c(O[Si](C)(C)C(C)(C)C)cc12
- TGI (786-0 renal): 28.1 µM
- TGI (A498 renal): 4.77 µM
- TGI (CAKI-1 renal): 30.7 µM
- TGI (CCRF-CEM leukemia): 13.5 µM
- TGI (COLO 205 colon): 32.5 µM
- TGI (DLD-1 colon): 3.92 µM
- TGI (DMS 114 small cell lung): 15.1 µM
- TGI (DMS 273 small cell lung): 20 µM
- TGI (EKVX NSCLC): 33.9 µM
- TGI (HCC-2998 colon): 15.5 µM
- TGI (HCT-116 colon): 13.6 µM
- TGI (HCT-15 colon): 20.3 µM
- TGI (HL-60(TB) leukemia): 8.89 µM
- TGI (HOP-62 NSCLC): 34 µM
- TGI (HOP-92 NSCLC): 20 µM
- TGI (IGROV1 ovarian): 12.5 µM
- TGI (K-562 leukemia): 18.2 µM
- TGI (KM12 colon): 26.1 µM
- TGI (KM20L2 colon): 32.1 µM
- TGI (LOX IMVI melanoma): 12.9 µM
- TGI (M14 melanoma): 19.6 µM
- TGI (MOLT-4 leukemia): 24.8 µM
- TGI (NCI-H23 lung): 17.1 µM
- TGI (NCI-H460 lung): 16.5 µM
- TGI (NCI-H522 lung): 19 µM
- TGI (OVCAR-3 ovarian): 29.3 µM
- TGI (OVCAR-4 ovarian): 26.2 µM
- TGI (OVCAR-8 ovarian): 7.56 µM
- TGI (RPMI-8226 leukemia): 9.41 µM
- TGI (RXF 393 renal): 11.2 µM
- TGI (SF-268 CNS): 26.2 µM
- TGI (SF-295 CNS): 23 µM
- TGI (SF-539 CNS): 27.7 µM
- TGI (SK-MEL-2 melanoma): 42.6 µM
- TGI (SK-MEL-28 melanoma): 11.9 µM
- TGI (SK-MEL-5 melanoma): 14.6 µM
- TGI (SN12C renal): 23.1 µM
- TGI (SNB-19 CNS): 25.7 µM
- TGI (SNB-78 CNS): 9.82 µM
- TGI (SR leukemia): 19.1 µM
- TGI (SW-620 colon): 8.85 µM
- TGI (TK-10 renal): 17.6 µM
- TGI (U251 CNS): 6.78 µM
- TGI (UACC-257 melanoma): 11.6 µM
- TGI (UO-31 renal): 26.3 µM
- TGI (XF 498 CNS): 32.8 µM
